Assay results: US20110065663A1, “ANTI-CANCER COMBINATION THERAPY” (Katholieke Universiteit Leuven, K.U. Leuven R&D, priority 2008, published 2011)

What was measured:
MCF-7/HYOR cell cultures = assay: Nucleoside metabolism experiments, distribution of drug-derived radiolabel in MCF-7/HYOR cell cultures; format: cell-based, human; settings: MCF-7/HYOR; for % of drug-derived radiolabel, In medium, Base / % of drug-derived radiolabel, In medium, Nucleoside / % of drug-derived radiolabel, In the cytosol of the cells, 5′-diphosphate / % of drug-derived radiolabel, In the cytosol of the cells, 5′-monophosphate / % of drug-derived radiolabel, In the cytosol of the cells, 5′-triphosphate / % of drug-derived radiolabel, In the cytosol of the cells, Nucleoside/nucleobase / % of drug-derived radiolabel, Incorporatio into DNA/RNA: 1 μCi, 16 h; for Increase of 5′-monophosphate levels in the presence of TPi: with versus without TPi
M. hyorhinis TP = assay: TP activity in the medium of MCF-7/HYOR cell cultures (HPLC, conversion of nucleoside to free base); format: biochemical, Mycoplasma hyorhinis; settings: 200 μM substrate, 37° C.
Procedure: The TP activity of M. hyorhinis and the conversion of dThd, FdUrd, 5′DFUR and TFT to thymine, 5FU, 5FU or TF-thymine respectively were measured by high-pressure liquid chromatography (HPLC) analysis. MCF-7 and MCF-7/HYOR cells were seeded at a density of 20,000 cells/cm^2 in DMEM with 10% FBS. Four days later, the medium was collected and cleared by centrifugation at 1,400 rpm. For some experiments, the medium of MCF-7/HYOR cells was filtered using a 0.1 μm micro filter (Acrodisc syringe filter, PALL Corporation, East Hills, N.Y.) to remove the mycoplasmas from the medium. 600 μl of the medium was incubated with 200 μM of substrate (dThd, 5′DFUR, TFT or FdUrd) at 37° C. in the presence or absence of 10 μM TPi. At different time points (i.e. 0, 15, 30, 60, 120 minutes and 16 hours), 100 μl aliquots were withdrawn, transferred to Eppendorf tubes and heated at 95° C. for 3 min. Next, the samples were rapidly cooled on ice, exposed for 20 min to 200 μl ice-cold methanol and cleared by centrifugation at 15,000 rpm for 15 minutes. As a positive control, an enzyme activity assay with E. coli TP (Sigma) was performed. For this reaction, 0.025 U of TP were incubated with 200 μM of substrate in TP-buffer (10 mM Tris-HCl, pH 7.6, 1 mM EDTA, 2 mM potassium phosphate and 150 mM NaCl) in a total volume of 600 μl. Aliquots of 100 μl were withdrawn from the reaction mixture at several time points and treated as described above. The nucleosides were separated from their nucleobases on a reversed-phase RP-8 column (Merck, Darmstadt, Germany) and quantified by HPLC analysis (Aliance 2690, Waters, Milford, Mass.). The separation was performed by a linear gradient from 100% buffer B (50 mM NaH2PO4 and 5 mM heptane sulfonic acid, pH 3.2), to 20% buffer B and 80% acetonitrile. […] UV-based detection of all nucleosides was performed at 267 nm.

E. coli TP = target: T1, E. coli TP (Escherichia coli, UniProt P07650); assay: Enzyme activity assay with recombinant E. coli TP (positive control); format: biochemical; settings: 0.025 U TP, 200 μM substrate
T1 construct: purchased Sigma
Procedure: The TP activity of M. hyorhinis and the conversion of dThd, FdUrd, 5′DFUR and TFT to thymine, 5FU, 5FU or TF-thymine respectively were measured by high-pressure liquid chromatography (HPLC) analysis. MCF-7 and MCF-7/HYOR cells were seeded at a density of 20,000 cells/cm^2 in DMEM with 10% FBS. Four days later, the medium was collected and cleared by centrifugation at 1,400 rpm. For some experiments, the medium of MCF-7/HYOR cells was filtered using a 0.1 μm micro filter (Acrodisc syringe filter, PALL Corporation, East Hills, N.Y.) to remove the mycoplasmas from the medium. 600 μl of the medium was incubated with 200 μM of substrate (dThd, 5′DFUR, TFT or FdUrd) at 37° C. in the presence or absence of 10 μM TPi. At different time points (i.e. 0, 15, 30, 60, 120 minutes and 16 hours), 100 μl aliquots were withdrawn, transferred to Eppendorf tubes and heated at 95° C. for 3 min. Next, the samples were rapidly cooled on ice, exposed for 20 min to 200 μl ice-cold methanol and cleared by centrifugation at 15,000 rpm for 15 minutes. As a positive control, an enzyme activity assay with E. coli TP (Sigma) was performed. For this reaction, 0.025 U of TP were incubated with 200 μM of substrate in TP-buffer (10 mM Tris-HCl, pH 7.6, 1 mM EDTA, 2 mM potassium phosphate and 150 mM NaCl) in a total volume of 600 μl. Aliquots of 100 μl were withdrawn from the reaction mixture at several time points and treated as described above. The nucleosides were separated from their nucleobases on a reversed-phase RP-8 column (Merck, Darmstadt, Germany) and quantified by HPLC analysis (Aliance 2690, Waters, Milford, Mass.). The separation was performed by a linear gradient from 100% buffer B (50 mM NaH2PO4 and 5 mM heptane sulfonic acid, pH 3.2), to 20% buffer B and 80% acetonitrile. Retention times of thymine and thymidine were respectively 5.1 and 10.8 minutes. UV-based detection of all nucleosides was performed at 267 nm.

MCF-7/HYOR cells = assay: Nucleotide incorporation assay, MCF-7/HYOR compared with MCF-7 cells; format: cell-based, human; settings: 1 μCi radiolabeled compound; FIG. 4
Procedure: MCF-7 and MCF-7/HYOR cells were seeded at 10,000 cells/cm. After 48 hours, cells were treated with 1 μCi of ^3H-labeled nucleoside with or without 10 μM TPi. 16 h later, the medium was removed and the cells were washed twice with PBS. Next, the cells were trypsinized, transferred to Eppendorf tubes and centrifuged for 10 minutes at 1,400 rpm. The pellet was resuspended in 1 ml absolute ice-cold methanol and kept on ice for 20 minutes. After centrifugation for 20 minutes at 13,000 rpm the pellet was washed twice with methanol, resuspended in methanol and transferred to scintillation vials containing 9 ml of Ready safe liquid scintillation reagent (‘Hisafe 3’, Perkin Elmer, Waltham, Mass.). The radioactivity was measured by a Liquid scintillation analyzer (2300 TR, Packard, Canberra, Australia).

T1 sequence (P07650 whole entry): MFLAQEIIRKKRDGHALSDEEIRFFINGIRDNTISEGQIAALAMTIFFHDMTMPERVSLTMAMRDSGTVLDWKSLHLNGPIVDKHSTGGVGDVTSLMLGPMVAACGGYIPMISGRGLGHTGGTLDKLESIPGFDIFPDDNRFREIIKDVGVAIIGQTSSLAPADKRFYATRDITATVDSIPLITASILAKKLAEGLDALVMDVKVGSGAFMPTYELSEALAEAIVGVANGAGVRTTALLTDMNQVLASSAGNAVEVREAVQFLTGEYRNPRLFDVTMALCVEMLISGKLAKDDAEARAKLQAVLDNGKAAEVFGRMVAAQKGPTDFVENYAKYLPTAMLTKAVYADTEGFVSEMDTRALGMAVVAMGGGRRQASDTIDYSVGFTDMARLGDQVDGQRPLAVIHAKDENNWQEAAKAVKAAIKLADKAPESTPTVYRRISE

Q: With `O=c1[nH]c(=O)n([C@H]2C[C@H](O)[C@@H](CO)O2)cc1C(F)(F)F` [TFT, 5-trifluorothymidine] as the compound, how does the “% of drug-derived radiolabel, In medium, Base” value (MCF-7/HYOR cell cultures) read?
A: The value was 56.7%.

Q: What about the “% of drug-derived radiolabel, In medium, Nucleoside” value (MCF-7/HYOR cell cultures) of the same compound?
A: The value was 23.3%.

Q: What about the “% of drug-derived radiolabel, In the cytosol of the cells, 5′-diphosphate” value (MCF-7/HYOR cell cultures) of the same compound?
A: The value was 0.6%.

Q: And the “% of drug-derived radiolabel, In the cytosol of the cells, 5′-monophosphate” value (MCF-7/HYOR cell cultures)?
A: The value was 6.1%.

Q: What about the “% of drug-derived radiolabel, In the cytosol of the cells, 5′-triphosphate” value (MCF-7/HYOR cell cultures) of the same compound?
A: Its value is 0.6%.

Q: And the “% of drug-derived radiolabel, In the cytosol of the cells, Nucleoside/nucleobase” value (MCF-7/HYOR cell cultures)?
A: Its value is 11.0%.

Q: And the “% of drug-derived radiolabel, Incorporatio into DNA/RNA” value (MCF-7/HYOR cell cultures)?
A: The value was 1.8%.

Q: And the “Share incorporated into the nucleic acids in the presence of TPi” value (MCF-7/HYOR cell cultures)?
A: Its value is 66%.

Q: What about the “Increase of 5′-monophosphate levels in the presence of TPi” value (MCF-7/HYOR cell cultures) of the same compound?
A: Its value is 2.7 fold.

Q: What about the “Percent conversion of nucleoside to the free pyrimidine base in MCF-7/HYOR medium” value (M. hyorhinis TP; 2 hours) of the same compound?
A: Its value is 8%.

Q: And the “Percent conversion of nucleoside to the free pyrimidine base in MCF-7/HYOR medium” value (M. hyorhinis TP; 16 hours)?
A: The value was 55%.

Q: And the “Percent conversion of nucleoside to the free pyrimidine base, recombinant E. coli TP” value (E. coli TP; 2 hours)?
A: Its value is 48%.

Q: And the “Percent conversion of nucleoside to the free pyrimidine base, recombinant E. coli TP” value (E. coli TP; 16 hours)?
A: The value was 85%.

Q: And the “Reduction of incorporation into nucleic acids in infected MCF-7/HYOR cells in comparison with uninfected MCF-7 cells” value (MCF-7/HYOR cells)?
A: The value was 40 fold.

Q: Which “% of drug-derived radiolabel, In medium, Base” value (MCF-7/HYOR cell cultures) does the source give for `O=c1[nH]c(=O)n([C@H]2C[C@H](O)[C@@H](CO)O2)cc1F` [FdUrd, 5-fluoro-2′-deoxyuridine] here?
A: The value was 49.5%.

Q: What about the “% of drug-derived radiolabel, In medium, Nucleoside” value (MCF-7/HYOR cell cultures) of the same compound?
A: Its value is 33.2%.

Q: What about the “% of drug-derived radiolabel, In the cytosol of the cells, 5′-diphosphate” value (MCF-7/HYOR cell cultures) of the same compound?
A: Its value is 0.9%.

Q: What about the “% of drug-derived radiolabel, In the cytosol of the cells, 5′-monophosphate” value (MCF-7/HYOR cell cultures) of the same compound?
A: Its value is 3.5%.

Q: What about the “% of drug-derived radiolabel, In the cytosol of the cells, 5′-triphosphate” value (MCF-7/HYOR cell cultures) of the same compound?
A: Its value is 0.3%.

Q: And the “% of drug-derived radiolabel, In the cytosol of the cells, Nucleoside/nucleobase” value (MCF-7/HYOR cell cultures)?
A: Its value is 11.6%.

Q: What about the “% of drug-derived radiolabel, Incorporatio into DNA/RNA” value (MCF-7/HYOR cell cultures) of the same compound?
A: Its value is 1.0%.

Q: What about the “Share incorporated into the nucleic acids in the presence of TPi” value (MCF-7/HYOR cell cultures) of the same compound?
A: The value was “almost no”.

Q: What about the “Increase of 5′-monophosphate levels in the presence of TPi” value (MCF-7/HYOR cell cultures) of the same compound?
A: The value was 18 fold.

Q: What about the “Percent conversion of nucleoside to the free pyrimidine base in MCF-7/HYOR medium” value (M. hyorhinis TP; 2 hours) of the same compound?
A: Its value is 43%.

Q: And the “Percent conversion of nucleoside to the free pyrimidine base in MCF-7/HYOR medium” value (M. hyorhinis TP; 16 hours)?
A: The value was 77%.

Q: What about the “Percent conversion of nucleoside to the free pyrimidine base, recombinant E. coli TP” value (E. coli TP; 2 hours) of the same compound?
A: Its value is 57%.

Q: And the “Percent conversion of nucleoside to the free pyrimidine base, recombinant E. coli TP” value (E. coli TP; 16 hours)?
A: Its value is 63%.

Q: And the “Incorporation into nucleic acids, infected versus uninfected MCF-7 cells (in words)” value (MCF-7/HYOR cells)?
A: Its value is “did not affect”.
